These results are taken from publication PMC7293031 (Nucleic Acids Research, 2020).

Experiment [1] deals with T1, PvrA (Pseudomonas aeruginosa, UniProt Q9HZP1).
T1 sequence (Q9HZP1 1-212): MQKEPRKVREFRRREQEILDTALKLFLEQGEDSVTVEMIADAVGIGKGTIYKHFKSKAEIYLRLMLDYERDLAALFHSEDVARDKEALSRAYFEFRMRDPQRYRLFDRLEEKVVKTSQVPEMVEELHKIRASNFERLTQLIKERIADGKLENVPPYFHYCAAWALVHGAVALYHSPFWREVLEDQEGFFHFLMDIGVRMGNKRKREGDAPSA
Nature of the experiment: ITC at […]°C. Type of experiment: binding.

Experiment [2] has as its target T2, PvrA (Pseudomonas aeruginosa, UniProt Q9HZP1, R136A).
T2 sequence (Q9HZP1 1-212 R136A): T1 sequence (Q9HZP1 1-212)
The experiment in a line: ITC. The class given is binding.

In general, Kd refers to a measure of binding affinity in units of concentration.

`CCCCCCCCCCCCCCCC(=O)SCCNC(=O)CCNC(=O)[C@H](O)C(C)(C)COP(=O)(O)OP(=O)(O)OC[C@H]1O[C@@H](n2cnc3c(N)ncnc32)[C@H](O)[C@@H]1OP(=O)(O)O` [palmitoyl-coenzyme A]: the Kd was found to be 31 µM at PvrA [1] and 262 µM at PvrA [2].
